# Measured values: PMC5699498 (Protein Science : A Publication of the Protein Society, 2017)
# Molecular target: Lpg2936 (Legionella pneumophila, UniProt Q5ZRE6)
# Assay: biochemical
# Lpg2936, sequence (Q5ZRE6 1-244 limits assumed): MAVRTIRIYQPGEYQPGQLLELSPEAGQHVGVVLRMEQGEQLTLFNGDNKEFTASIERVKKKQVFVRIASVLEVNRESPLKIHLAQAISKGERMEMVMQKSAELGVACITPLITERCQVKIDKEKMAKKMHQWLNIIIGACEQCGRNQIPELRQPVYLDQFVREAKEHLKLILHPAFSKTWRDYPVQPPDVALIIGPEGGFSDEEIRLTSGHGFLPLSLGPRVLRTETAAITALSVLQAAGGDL
smiles,measurement,value
C[S+](CC[C@H](N)C(=O)O)C[C@H]1O[C@@H](n2cnc3c(N)ncnc32)[C@H](O)[C@@H]1O (stereo partly shown) [S‐adenosyl‐L‐methionine],Kd,12 nM
